From BindingDB's records for patent US9102669 (Janssen Pharmaceutica, 2015)

Molecular target: T1, Acyl-CoA desaturase 1 (Rattus norvegicus, UniProt P07308)
T1 sequence (P07308 whole entry): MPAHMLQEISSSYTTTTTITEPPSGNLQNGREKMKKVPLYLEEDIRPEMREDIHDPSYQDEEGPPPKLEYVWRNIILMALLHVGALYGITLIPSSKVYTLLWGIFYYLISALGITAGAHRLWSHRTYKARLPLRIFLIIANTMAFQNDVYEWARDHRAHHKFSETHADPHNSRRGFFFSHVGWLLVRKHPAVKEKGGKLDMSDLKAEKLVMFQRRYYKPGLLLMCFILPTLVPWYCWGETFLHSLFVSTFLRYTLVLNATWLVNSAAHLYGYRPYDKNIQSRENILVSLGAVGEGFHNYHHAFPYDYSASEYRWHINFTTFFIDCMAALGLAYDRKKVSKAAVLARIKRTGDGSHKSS
Assay: Enzymatic Assay
Details: 25 °C
Method: The SCD1 enzymatic assay was done in a volume of 50 μL using 10 μg of RLM (prepared as described above) in a 96-well polypropylene plate (enzyme reaction buffer contains 0.1 M K-Phosphate Buffer, 10 mM ATP, 6 mM MgCl2. 1 mM CoA, 1 mM β-NADH, 1.6 mM L-glutathione, 20 μM Stearoyl-CoA). […] Test compound was then added to the reaction mixture at the selected concentration. After incubation at room temperature for 2 hours, 5 μL 1 N HCl was added to stop the reaction, followed by addition of 25 μL of 10% charcoal. The reaction mixture was then transferred to 96-well Multiscreen plate (Millipore, Cat#MSFCN6B50).

- IC50: > 1 µM
Compound: Cn1cc(-c2ccc(N3CCC(N4CCc5c(Cl)cc(Cl)cc54)CC3)nn2)cn1 [US9102669, 68]
